Test results from US8076377B2, “N,N-dimethyl imidodicarbonimidic diamide dicarboxylate, method for producing the same and pharmaceutical compositions comprising the same” (Hanall Pharmaceutical Company, Ltd., priority 2007, dated 2011).
Structures can show the parent of a compound that is named as a salt.

Tests used:
rabbit = settings: oral; cited from earlier work
[1] = pH at saturation
[2] = system: hyperlipidemia-induced rats; experiment: Effect on blood lipid, oral administration for 1 week to hyperlipidemia-induced rats (blood biochemical tests); settings: 500 mg/kg oral for 1 week, average ± standard deviation
[3] = Water content with Karl-Fisher moisture meter after exposure to temperature/relative humidity (hygroscopicity, hydrate stability)
rat = settings: oral; cited from earlier work

Compound | Saturation pH [1] | ALT [2] | AST [2] | BUN [2] | CHO (Cholesterol) [2] | CRE [2] | HDL [2] | LDL [2] | TG (Triglyceride) [2] | water content ([3]; 40° C., 75% R.H., day 0) | water content ([3]; 40° C., 75% R.H., day 1) | water content ([3]; 40° C., 75% R.H., day 2) | water content ([3]; 40° C., 75% R.H., day 5) | water content ([3]; 60° C., 15% R.H., day 0) | water content ([3]; 60° C., 15% R.H., day 1) | water content ([3]; 60° C., 15% R.H., day 2) | water content ([3]; 60° C., 15% R.H., day 5) | also measured
Cl [Hydrochloric acid] | – | – | – | – | – | – | – | – | – | – | – | – | – | – | – | – | – | LD50 (50% lethal dose) (rabbit): LD50 900 mg/kg
CN(C)C(=N)N=C(N)N.O=C(O)CCCC(=O)O [Metformin glutarate, metformin (2:1) glutarate] | 10.200 | – | – | – | – | – | – | – | – | – | – | – | – | – | – | – | – | –
CN(C)C(=N)N=C(N)N [Metformin hydrochloride, metformin hydrochloride, reference compound] | 2.892 | 49.8 ± 4.8 IU/L | 126.9 ± 8.4 IU/L | 13.6 ± 0.4 mg/dL | 277.1 ± 21.8 mg/dL | 0.5 ± 0.0 mg/dL | 42.5 ± 1.0 mg/dL | 198.3 ± 18.5 mg/dL | 37.3 ± 1.5 mg/dL | 0.080 wt % | 0.069 wt % | 0.053 wt % | 0.054 wt % | 0.080 wt % | 0.044 wt % | 0.047 wt % | 0.056 wt % | –
CN(C)C(=N)NC(=N)N [Metformin malate, metformin (2:1) malate] | 3.950 | – | – | – | – | – | – | – | – | – | – | – | – | – | – | – | – | –
O=C(O)CCCC(=O)O [glutaric acid] | – | – | – | – | – | – | – | – | – | – | – | – | – | – | – | – | – | LD50 (50% lethal dose) (rat): LD50 6000 mg/kg
metformin (2:1) malonate [Metformin malonate] | – | 49.0 ± 7.0 IU/L | 136.6 ± 11.6 IU/L | 15.3 ± 0.9 mg/dL | 238.2 ± 16.4 mg/dL | 0.5 ± 0.0 mg/dL | 40.4 ± 1.4 mg/dL | 168.3 ± 13.7 mg/dL | 50.3 ± 7.9 mg/dL | 5.143 wt % | 5.403 wt % | 5.288 wt % | 5.376 wt % | 5.143 wt % | 5.222 wt % | 5.219 wt % | 5.184 wt % | –
